# Literature values as cited in patent US8518435B2 (priority 2011, dated 2013).
# Tests used:
# [1] = test system: bacteria, viruses, parasites, and yeast/mold/fungus; conditions: in vitro (in a test tube)
# rhinovirus IB = conditions: in vitro; J. Nat. Prod. (1994)
# influenza virus = conditions: mice infected with lethal doses of influenza virus, vs saline controls
compound,measurement,setting,value
COC(=O)C1=CO[C@@H](C)[C@@H](C=O)[C@@H]1CC(=O)[O-].COC(=O)C1=CO[C@@H](C)[C@@H](C=O)[C@@H]1CC(=O)[O-].[Ca+2] [calcium elenolate],effectiveness in eliminating organisms,[1],effective in eliminating a very broad range of organisms
beta-sesquiphellandrone,IC50,rhinovirus IB,440 nM
CC1(C)[C@@H](O[C@H]2O[C@H](C(=O)O)[C@@H](O)[C@H](O)[C@H]2O[C@@H]2O[C@H](C(=O)O)[C@@H](O)[C@H](O)[C@H]2O)CC[C@]2(C)[C@H]3C(=O)C=C4[C@@H]5C[C@@](C)(C(=O)O)CC[C@]5(C)CC[C@@]4(C)[C@]3(C)CC[C@@H]12 [glycyrrhizin],lung damage,influenza virus,less lung damage
same,protection from death,influenza virus,protected from death due to the virus
